How the values were obtained:
[1] = tested on: CX3CR1; assay: Analysis of the gene expression of CX3CR1 in a human monocyte line (real-time RT-PCR); assay type: cell-based; settings: 150 μM (maximum soluble concentration), 1 hour pre-incubation; MonoMac6 cells stimulated with LPS 100 ng/ml for 20 hours
Procedure: (§1) The capacity of compound 1 to inhibit the expression of CX3CR1 by lipopolysaccharide (LPS)-stimulated MonoMac6 cells was evaluated. The cells were placed in 96-well plates at a concentration of 50 000 cells/well. The compound was tested at the maximum soluble concentration given in Table 3 (in the range 30-300 μM) and incubated for 1 hour. The cells were then stimulated with LPS (100 ng/ml) for 20 hours.
(§2) The total RNA was extracted from the cell pellet using the RNeasy mini kit (Qiagen), reverse-transcribed with the TaqMan Reverse transcription reagents synthesis kit (Applied Biosystems) and the cDNA obtained was used for the real-time PCR reaction. The amplification was obtained in 96-well plates using the ABI Prism 7000 sequence detection system (Applied Biosystems), by applying the following temperature profile: 50° C. for 2 minutes, 95° C. for 10 minutes and 45 cycles at 95° C. for 15 seconds and 60° C. for 1 minute. For the amplification, a set of primers and probe specific for human CX3CR1 was used (Applied Biosystems, RefSeq NM_001337.3). […] Once the reaction had taken place, the fluorescence data were analysed using the ABI Prism 7000 SDS software, by calculating the threshold cycle (Ct) for each sample and subsequently performing a relative quantification via the ΔΔCt method.
The results obtained, expressed as a percentage of inhibition, are collated in Table 3 below.

[2] = tested on: MCP-1; assay: Measurement of the production of MCP-1 in a human monocyte line (ELISA); assay type: cell-based; settings: MONO-MAC-6, 150 μM (maximum soluble concentration), 1 hour pre-incubation, MonoMac6 cells stimulated with LPS 100 ng/ml for 20 hours, supernatant ELISA, read-out: % inhibition of LPS-induced MCP-1 production (produced protein)
Procedure: The capacity of the compounds 1 and 2 to inhibit the expression of the protein MCP-1 by lipopolysaccharide (LPS)-stimulated MonoMac6 cells was evaluated. The cells were placed in 96-well plates at a concentration of 50 000 cells/well. The compounds were tested at the maximum soluble concentration given in Table 2 (in the range 30-300 μM) and incubated for 1 hour. The cells were then stimulated with LPS (100 ng/ml) for 20 hours.
The amount of MCP-1 produced was measured in the supernatants, suitably diluted with buffer, by means of an immunoenzymatic test (ELISA) using a commercial kit (ELISA MCP-1/JE, R&D Systems).
The results obtained, expressed as a percentage of inhibition, are collated in Table 2 below.

[3] = tested on: MCP-1; assay: Analysis of the gene expression of MCP-1 in a human monocyte line (real-time RT-PCR); assay type: cell-based; settings: 150 μM (maximum soluble concentration), 1 hour pre-incubation; MonoMac6 cells stimulated with LPS 100 ng/ml for 4 hours
Procedure: as §1, with “of MCP-1” for “of CX3CR1”, “Table 1” for “Table 3”, “for 4” for “for 20”
as §2, with “MCP-1” for “CX3CR1”, “NM_002982.3).” for “NM_001337.3).”
The results obtained, expressed as a percentage of inhibition, are collated in Table 1 below.

melting point | SMILES | % inhibition of LPS-induced expression of CX3CR1 (specific mRNA) [1] | inhibition at 150 µM [2] | % inhibition of LPS-induced expression of MCP-1 (specific mRNA) [3]
 | CCNCC(O)c1nn(Cc2ccccc2)c2ccccc12 (stereo not shown) [Compound 2, 1-(1-benzyl-1H-indazol-3-yl)-2-(ethylamino)ethanol] | 85% | 67% | 53%
126 °C (dec.) | NCC(O)c1nn(Cc2ccccc2)c2ccccc12 (stereo not shown) [Compound 1, 2-amino-1-(1-benzyl-1H-indazol-3-yl)ethanol] | 96% | 73% | 64%

Source: US8569297B2, “1-benzyl-3-hydroxymethylindazole derivatives and use thereof in the treatment of diseases based on the expression of MCP-1 and CX3CR1” (Aziende Chimiche Riunite Angelini Francesco A.C.R.A.F. …, priority 2008, dated 2013)
